Data as given in ChEMBL document CHEMBL1926576, “Fragment based lead discovery of small molecule inhibitors for the EPHA4 receptor tyrosine kinase” (Eur J Med Chem, 2012).

Legend:
[1] = biological target: Serine/threonine-protein kinase Sgk1 (Homo sapiens) (UniProt O00141); experiment: Inhibition of SGK1 assessed as residual activity at 10 uM using [33P-ATP] by radiometric filter binding assay
[2] = biological target: Eukaryotic elongation factor 2 kinase (Homo sapiens) (UniProt O00418); experiment: Inhibition of EF2K assessed as residual activity at 10 uM using [33P-ATP] by radiometric filter binding assay
[3] = biological target: Serine/threonine-protein kinase 33 (Homo sapiens) (UniProt Q9BYT3); experiment: Inhibition of STK33 assessed as residual activity at 10 uM using [33P-ATP] by radiometric filter binding assay
Sequence of Serine/threonine-protein kinase 33 (Homo sapiens) (Q9BYT3 whole entry, looked up): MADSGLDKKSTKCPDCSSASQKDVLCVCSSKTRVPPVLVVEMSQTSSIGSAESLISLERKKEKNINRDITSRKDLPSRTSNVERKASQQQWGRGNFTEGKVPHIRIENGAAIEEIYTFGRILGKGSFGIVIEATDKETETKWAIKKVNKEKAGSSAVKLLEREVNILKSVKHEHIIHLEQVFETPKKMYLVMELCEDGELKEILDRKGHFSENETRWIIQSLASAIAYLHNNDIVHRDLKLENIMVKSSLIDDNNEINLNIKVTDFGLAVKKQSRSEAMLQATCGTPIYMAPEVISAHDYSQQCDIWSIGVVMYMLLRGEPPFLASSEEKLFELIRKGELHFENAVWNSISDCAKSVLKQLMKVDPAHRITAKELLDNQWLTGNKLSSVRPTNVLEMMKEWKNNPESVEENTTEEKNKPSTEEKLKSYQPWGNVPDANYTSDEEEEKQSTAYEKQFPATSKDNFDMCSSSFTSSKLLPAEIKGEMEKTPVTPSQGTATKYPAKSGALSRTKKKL

[4] = biological target: Serine/threonine-protein kinase TAO1 (Homo sapiens) (UniProt Q7L7X3); experiment: Inhibition of TAO1 assessed as residual activity at 10 uM using [33P-ATP] by radiometric filter binding assay
Sequence of Serine/threonine-protein kinase TAO1 (Homo sapiens) (Q7L7X3 whole entry): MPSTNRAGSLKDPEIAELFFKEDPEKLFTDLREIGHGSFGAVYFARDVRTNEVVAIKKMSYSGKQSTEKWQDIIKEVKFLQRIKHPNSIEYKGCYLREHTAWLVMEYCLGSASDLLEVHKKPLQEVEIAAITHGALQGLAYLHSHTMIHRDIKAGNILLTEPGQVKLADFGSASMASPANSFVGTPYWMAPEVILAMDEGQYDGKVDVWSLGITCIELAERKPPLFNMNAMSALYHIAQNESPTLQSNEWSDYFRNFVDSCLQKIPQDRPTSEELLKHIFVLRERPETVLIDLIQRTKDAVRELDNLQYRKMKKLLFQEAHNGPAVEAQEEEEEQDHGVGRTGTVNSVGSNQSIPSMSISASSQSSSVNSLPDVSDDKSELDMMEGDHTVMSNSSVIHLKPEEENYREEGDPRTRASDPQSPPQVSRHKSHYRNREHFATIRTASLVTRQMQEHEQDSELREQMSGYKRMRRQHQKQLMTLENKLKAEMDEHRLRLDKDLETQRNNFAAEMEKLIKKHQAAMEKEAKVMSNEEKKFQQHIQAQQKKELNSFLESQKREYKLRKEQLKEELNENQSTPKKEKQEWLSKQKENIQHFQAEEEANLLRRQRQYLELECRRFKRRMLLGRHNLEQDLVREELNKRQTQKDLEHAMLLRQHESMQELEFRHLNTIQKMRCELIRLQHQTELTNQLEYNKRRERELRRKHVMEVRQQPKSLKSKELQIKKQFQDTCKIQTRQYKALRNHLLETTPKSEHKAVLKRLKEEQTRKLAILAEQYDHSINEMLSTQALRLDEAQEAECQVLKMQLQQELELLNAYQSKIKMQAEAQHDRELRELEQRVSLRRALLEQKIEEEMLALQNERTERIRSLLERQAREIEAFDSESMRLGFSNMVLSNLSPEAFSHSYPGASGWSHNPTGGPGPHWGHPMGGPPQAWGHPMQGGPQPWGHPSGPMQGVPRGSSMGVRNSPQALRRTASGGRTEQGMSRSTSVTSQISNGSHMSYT

[5] = biological target: Serine/threonine-protein kinase 3 (Homo sapiens) (UniProt Q13188); experiment: Inhibition of MST2 assessed as residual activity at 10 uM using [33P-ATP] by radiometric filter binding assay
[6] = biological target: Tyrosine-protein kinase CSK (Homo sapiens) (UniProt P41240); experiment: Inhibition of CSK assessed as residual activity at 10 uM using [33P-ATP] by radiometric filter binding assay
[7] = biological target: Serine/threonine-protein kinase PAK 5 (Homo sapiens) (UniProt Q9P286); experiment: Inhibition of PAK5 assessed as residual activity at 10 uM using [33P-ATP] by radiometric filter binding assay
[8] = biological target: Tyrosine-protein kinase ABL1 (Homo sapiens) (UniProt P00519); experiment: Inhibition of ABL assessed as residual activity at 10 uM using [33P-ATP] by radiometric filter binding assay
[9] = biological target: Dual specificity tyrosine-phosphorylation-regulated kinase 3 (Homo sapiens) (UniProt O43781); experiment: Inhibition of DYRK3 assessed as residual activity at 10 uM using [33P-ATP] by radiometric filter binding assay
Sequence of Dual specificity tyrosine-phosphorylation-regulated kinase 3 (Homo sapiens) (O43781 whole entry): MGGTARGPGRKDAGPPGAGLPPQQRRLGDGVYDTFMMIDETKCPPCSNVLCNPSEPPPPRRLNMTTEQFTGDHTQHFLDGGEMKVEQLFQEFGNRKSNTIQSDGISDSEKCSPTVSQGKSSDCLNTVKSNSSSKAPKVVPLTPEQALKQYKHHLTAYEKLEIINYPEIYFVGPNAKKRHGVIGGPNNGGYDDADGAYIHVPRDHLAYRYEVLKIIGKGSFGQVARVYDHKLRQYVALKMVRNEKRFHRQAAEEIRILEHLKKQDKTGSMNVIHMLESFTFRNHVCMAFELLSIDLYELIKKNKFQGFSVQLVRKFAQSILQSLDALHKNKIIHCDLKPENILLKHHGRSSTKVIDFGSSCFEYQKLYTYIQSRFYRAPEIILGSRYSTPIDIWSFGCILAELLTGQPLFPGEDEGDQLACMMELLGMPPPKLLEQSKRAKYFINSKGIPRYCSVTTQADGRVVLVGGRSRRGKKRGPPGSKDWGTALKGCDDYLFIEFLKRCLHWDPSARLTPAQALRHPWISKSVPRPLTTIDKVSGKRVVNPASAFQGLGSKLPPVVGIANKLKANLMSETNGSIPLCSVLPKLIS

[10] = biological target: Inhibitor of nuclear factor kappa-B kinase subunit beta (Homo sapiens) (UniProt O14920); experiment: Inhibition of IKK-beta assessed as residual activity at 10 uM using [33P-ATP] by radiometric filter binding assay
[11] = biological target: Interleukin-1 receptor-associated kinase 4 (Homo sapiens) (UniProt Q9NWZ3); experiment: Inhibition of IRAK4 assessed as residual activity at 10 uM using [33P-ATP] by radiometric filter binding assay
[12] = biological target: Mitogen-activated protein kinase 10 (Homo sapiens) (UniProt P53779); experiment: Inhibition of JNK3 assessed as residual activity at 10 uM using [33P-ATP] by radiometric filter binding assay
[13] = biological target: MAP kinase-activated protein kinase 2 (Homo sapiens) (UniProt P49137); experiment: Inhibition of MAPKAP-K2 assessed as residual activity at 10 uM using [33P-ATP] by radiometric filter binding assay
[14] = biological target: Serine/threonine-protein kinase BRSK2 (Homo sapiens) (UniProt Q8IWQ3); experiment: Inhibition of BRSK2 assessed as residual activity at 10 uM using [33P-ATP] by radiometric filter binding assay
[15] = biological target: Dual specificity protein kinase CLK2 (Homo sapiens) (UniProt P49760); experiment: Inhibition of CLK2 assessed as residual activity at 10 uM using [33P-ATP] by radiometric filter binding assay
[16] = biological target: Tyrosine-protein kinase Yes (Homo sapiens) (UniProt P07947); experiment: Inhibition of YES1 assessed as residual activity at 10 uM using [33P-ATP] by radiometric filter binding assay
[17] = biological target: Dual specificity protein kinase TTK (Homo sapiens) (UniProt P33981); experiment: Inhibition of TTK assessed as residual activity at 10 uM using [33P-ATP] by radiometric filter binding assay
Sequence of Dual specificity protein kinase TTK (Homo sapiens) (P33981 whole entry): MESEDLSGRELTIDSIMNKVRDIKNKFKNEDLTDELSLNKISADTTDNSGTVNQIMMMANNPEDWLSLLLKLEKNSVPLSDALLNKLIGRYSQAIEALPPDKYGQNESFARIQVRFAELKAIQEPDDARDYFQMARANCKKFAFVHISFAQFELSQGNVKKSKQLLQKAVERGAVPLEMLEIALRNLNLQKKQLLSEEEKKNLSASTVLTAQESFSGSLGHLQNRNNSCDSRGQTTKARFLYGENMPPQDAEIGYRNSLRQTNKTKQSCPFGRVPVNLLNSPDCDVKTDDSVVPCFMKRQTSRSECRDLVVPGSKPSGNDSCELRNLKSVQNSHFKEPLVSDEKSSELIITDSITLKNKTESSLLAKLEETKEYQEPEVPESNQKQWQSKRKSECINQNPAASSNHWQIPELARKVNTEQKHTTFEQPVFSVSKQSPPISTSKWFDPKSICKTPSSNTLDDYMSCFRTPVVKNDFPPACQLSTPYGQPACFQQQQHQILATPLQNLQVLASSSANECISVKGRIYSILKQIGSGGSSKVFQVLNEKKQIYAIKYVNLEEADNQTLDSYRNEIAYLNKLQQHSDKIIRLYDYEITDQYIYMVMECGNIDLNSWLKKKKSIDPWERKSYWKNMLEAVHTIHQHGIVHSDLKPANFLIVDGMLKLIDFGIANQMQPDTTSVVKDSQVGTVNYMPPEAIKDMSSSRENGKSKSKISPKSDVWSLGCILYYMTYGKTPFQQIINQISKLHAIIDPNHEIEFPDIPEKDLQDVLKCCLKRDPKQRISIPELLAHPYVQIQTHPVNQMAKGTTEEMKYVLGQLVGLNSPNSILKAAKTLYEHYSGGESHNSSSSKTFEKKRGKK

[18] = biological target: Protein kinase C zeta type (Homo sapiens) (UniProt Q05513); experiment: Inhibition of PKCzeta assessed as residual activity at 10 uM using [33P-ATP] by radiometric filter binding assay
[19] = biological target: Serine/threonine-protein kinase Chk1 (Homo sapiens) (UniProt O14757); experiment: Inhibition of CHK1 assessed as residual activity at 10 uM using [33P-ATP] by radiometric filter binding assay
[20] = biological target: Ribosomal protein S6 kinase alpha-5 (Homo sapiens) (UniProt O75582); experiment: Inhibition of MSK1 assessed as residual activity at 10 uM using [33P-ATP] by radiometric filter binding assay
Sequence of Ribosomal protein S6 kinase alpha-5 (Homo sapiens) (O75582 whole entry, looked up): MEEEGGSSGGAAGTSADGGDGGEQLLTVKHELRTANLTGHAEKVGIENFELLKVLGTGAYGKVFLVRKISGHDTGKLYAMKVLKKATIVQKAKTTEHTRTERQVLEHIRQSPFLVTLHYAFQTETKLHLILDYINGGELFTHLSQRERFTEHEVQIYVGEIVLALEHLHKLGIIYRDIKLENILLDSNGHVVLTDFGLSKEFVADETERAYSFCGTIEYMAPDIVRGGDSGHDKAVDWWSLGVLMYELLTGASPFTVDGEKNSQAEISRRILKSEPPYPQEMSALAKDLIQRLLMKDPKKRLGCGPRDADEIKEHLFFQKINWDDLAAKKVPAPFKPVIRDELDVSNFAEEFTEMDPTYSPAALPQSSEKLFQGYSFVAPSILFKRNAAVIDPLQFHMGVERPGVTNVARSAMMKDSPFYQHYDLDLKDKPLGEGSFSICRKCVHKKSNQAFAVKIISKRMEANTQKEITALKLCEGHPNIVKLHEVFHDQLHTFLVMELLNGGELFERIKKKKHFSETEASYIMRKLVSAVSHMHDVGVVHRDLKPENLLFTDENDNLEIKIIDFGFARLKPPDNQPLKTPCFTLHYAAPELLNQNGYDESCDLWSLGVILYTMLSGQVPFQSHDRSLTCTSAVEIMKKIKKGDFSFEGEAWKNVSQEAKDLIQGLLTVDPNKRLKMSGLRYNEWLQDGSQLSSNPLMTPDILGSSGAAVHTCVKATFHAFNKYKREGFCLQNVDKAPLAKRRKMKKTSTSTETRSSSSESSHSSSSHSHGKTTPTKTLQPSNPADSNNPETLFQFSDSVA

[21] = biological target: Insulin receptor-related protein (Homo sapiens) (UniProt P14616); experiment: Inhibition of IRR assessed as residual activity at 10 uM using [33P-ATP] by radiometric filter binding assay
Sequence of Insulin receptor-related protein (Homo sapiens) (P14616 27-742 limits assumed): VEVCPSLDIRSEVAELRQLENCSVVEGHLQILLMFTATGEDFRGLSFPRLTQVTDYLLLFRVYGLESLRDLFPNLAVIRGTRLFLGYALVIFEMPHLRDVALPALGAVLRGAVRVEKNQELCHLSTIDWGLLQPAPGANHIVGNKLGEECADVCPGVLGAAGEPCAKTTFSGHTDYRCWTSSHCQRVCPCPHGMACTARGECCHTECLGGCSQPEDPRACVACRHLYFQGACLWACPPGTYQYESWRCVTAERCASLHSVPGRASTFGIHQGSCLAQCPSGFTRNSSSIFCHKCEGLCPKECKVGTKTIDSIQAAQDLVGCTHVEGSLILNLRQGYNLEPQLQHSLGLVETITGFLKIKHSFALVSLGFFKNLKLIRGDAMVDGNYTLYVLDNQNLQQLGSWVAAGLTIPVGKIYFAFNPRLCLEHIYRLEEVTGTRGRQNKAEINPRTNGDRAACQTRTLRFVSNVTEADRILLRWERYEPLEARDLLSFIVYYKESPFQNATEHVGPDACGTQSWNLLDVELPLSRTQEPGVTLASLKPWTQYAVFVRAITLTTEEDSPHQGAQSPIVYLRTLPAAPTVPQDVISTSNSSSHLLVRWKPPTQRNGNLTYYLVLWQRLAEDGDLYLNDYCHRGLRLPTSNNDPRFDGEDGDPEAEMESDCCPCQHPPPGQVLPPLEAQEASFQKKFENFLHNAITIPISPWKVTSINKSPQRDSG
Sequence of Insulin receptor-related protein (Homo sapiens) (P14616 747-1297 limits assumed): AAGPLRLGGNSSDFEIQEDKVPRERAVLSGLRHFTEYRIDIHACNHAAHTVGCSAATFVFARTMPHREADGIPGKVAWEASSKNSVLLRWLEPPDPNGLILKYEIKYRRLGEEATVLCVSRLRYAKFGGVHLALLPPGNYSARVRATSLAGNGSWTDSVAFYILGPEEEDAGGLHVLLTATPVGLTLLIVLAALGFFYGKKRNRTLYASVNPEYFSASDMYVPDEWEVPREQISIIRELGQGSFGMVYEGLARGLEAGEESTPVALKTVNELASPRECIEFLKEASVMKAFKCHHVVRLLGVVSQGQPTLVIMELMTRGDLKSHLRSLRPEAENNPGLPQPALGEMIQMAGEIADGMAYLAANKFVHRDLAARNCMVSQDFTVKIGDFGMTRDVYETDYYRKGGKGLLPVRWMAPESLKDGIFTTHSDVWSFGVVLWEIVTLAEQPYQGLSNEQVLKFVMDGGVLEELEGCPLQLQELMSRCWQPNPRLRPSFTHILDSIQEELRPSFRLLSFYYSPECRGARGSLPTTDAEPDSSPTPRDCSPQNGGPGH

[22] = biological target: Ephrin type-B receptor 3 (Homo sapiens) (UniProt P54753); experiment: Inhibition of EPHB3 assessed as residual activity at 10 uM using [33P-ATP] by radiometric filter binding assay
[23] = biological target: Tyrosine-protein kinase BTK (Homo sapiens) (UniProt Q06187); experiment: Inhibition of BTK assessed as residual activity at 10 uM using [33P-ATP] by radiometric filter binding assay
[24] = biological target: Glycogen synthase kinase-3 beta (Homo sapiens) (UniProt P49841); experiment: Inhibition of GSK3b assessed as residual activity at 10 uM using [33P-ATP] by radiometric filter binding assay
[25] = biological target: Serine/threonine-protein kinase TBK1 (Homo sapiens) (UniProt Q9UHD2); experiment: Inhibition of TBK1 assessed as residual activity at 10 uM using [33P-ATP] by radiometric filter binding assay
[26] = biological target: Ribosomal protein S6 kinase beta-1 (Homo sapiens) (UniProt P23443); experiment: Inhibition of S6K1 assessed as residual activity at 10 uM using [33P-ATP] by radiometric filter binding assay

What does the source list for `Cc1ccc(F)cc1-c1nc2[nH]nc(N)c2c2c1CCCC2`?
Activity [1]: 85%; Activity [2]: 114%; Activity [3]: 97%; Activity [4]: 37%; Activity [5]: 66%; Activity [6]: 35%; Activity [7]: 92%; Activity [8]: 45%; Activity [9]: 95%; Activity [10]: 51%; Activity [11]: 55%; Activity [12]: 72%; Activity [13]: 89%; Activity [14]: 73%; Activity [15]: 45%; Activity [16]: 18%; Activity [17]: 81%; Activity [18]: 106%; Activity [19]: 100%; Activity [20]: 75%; Activity [21]: 77%; Activity [22]: 7%; Activity [23]: 30%; Activity [24]: 73%; Activity [25]: 107%; Activity [26]: 103%
